According to article PMC11044151, “Development of Half-Sandwich Ru, Os, Rh, and Ir Complexes Bearing the Pyridine-2-ylmethanimine Bidentate Ligand Derived from 7-Chloroquinazolin-4(3H)-one with Enhanced Antiproliferative Activity” (ACS Omega, 2024):

Assays:
Colo205 = test: cells; details: Homo sapiens, COLO 205, 72 h, read-out: IC50 Colo205
Source text: (§1) To assess the impact of conjugating half-sandwich complexes with amines 1 via an imine-pyridine ligand on biological activity, we examined the antiproliferative potential of (R)- and (S)-1 and organometallic conjugates 3a–d and 4a–d in selected human cancer cell lines: alveolar basal epithelial cell adenocarcinoma (A549), colorectal adenocarcinomas (Colo205 and SW620), colorectal carcinoma (HCT116), hepatocellular carcinoma (HepG2), and breast adenocarcinoma (MCF7). The choice of cell lines was dictated by results of previously published clinical trials on ispinesib.[49],[50]
(§2) Cell lines used in this study were purchased from the American Type Culture Collection via LGC Standards. Human normal lung fibroblasts (MRC-5), alveolar basal epithelial cell adenocarcinoma (A549), colorectal adenocarcinoma (Colo205), hepatocellular carcinoma (HepG2), breast adenocarcinoma (MCF7), and colorectal adenocarcinoma (SW620) and its MDR variants[55] were cultured in standard conditions (37 °C, 5% CO2, 100% relative humidity) in high glucose DMEM medium supplemented with GlutaMax, HEPES (ThermoFisher Scientific) and 10% fetal bovine serum (EURx, Poland). All cell lines were tested for Mycoplasma contamination using a MycoProbe mycoplasma detection kit (R&D System).
(§3) For this purpose, neutral red uptake assay was performed. 10^4 of cells were seeded per well of a 96-well plate and left overnight to allow cells to attach to the surface. Then, the cells were exposed to a desired concentration of tested compounds. Stock solutions were prepared in DMSO and were used immediately after preparation. The final concentration of DMSO was constant and nontoxic (0.1% v/v). After 70 h of culture, neutral red was added to the final concentration of 1 mM. After 2 h of incubation with the dye, the medium was aspirated and cells were washed with ice-cold PBS. The dye was released using 100 μL of the solubilizer (1% acetic acid in 50% ethanol) on an orbital shaker (10 min). The absorbance at 540 nm was measured using an EnVision multilabel plate reader (PerkinElmer). […] The IC90 and IC50 parameters were calculated using GraphPad Prism v9 software using the five-parameter nonlinear logistic regression model.

HepG2 = test: cells; details: Homo sapiens, HepG2, 72 h, read-out: IC50 HepG2
Source text: as §1, §2, §3

MCF7 = test: cells; details: Homo sapiens, MCF7, 72 h, read-out: IC50 MCF7
Source text: as §1, §2, §3

SW620Mito = test: Neutral red uptake antiproliferative assay, MDR line SW620Mito; assay type: cell-based, human; details: Homo sapiens; exposure time 72 h, n = 3; ABCG2-overexpressing MDR line
Source text: (§4) Next, we evaluated the cytotoxicity of the synthesized complexes toward the panel of six multidrug-resistant (MDR) cell lines derived from SW620 and characterized by the overexpression of various ABC proteins, namely, ABCG2 (SW620C and SW620Mito), ABCC1 (SW620M and SW620E), and ABCB1 (SW620D, SW620E, and SW620V) (Table 3, Figures S29 and S32). […] The activity of the complexes derived from the ligand (S)-2 is also considerably higher than that of the compounds containing the ligand (R)-2. The cytotoxicity of both rhodium 4c and iridium 4d complexes is higher than that of amine (S)-1. In the case of 4c, the increase in cytotoxicity is low, with the highest value of 3.7-fold for the SW620Mito line. […] Compound 4d also exerts a 2.1- and 2.6-fold higher cytotoxicity than […] against the SW620C and SW620D lines.
(§5) For this purpose, neutral red uptake assay was performed. […] The results were presented as a percentage of control.

HCT116 = test: cells; details: Homo sapiens, HCT-116, 72 h, read-out: IC50 HCT116
Source text: as §1, §3

SW620D = test: Neutral red uptake antiproliferative assay, MDR line SW620D; assay type: cell-based, human; details: Homo sapiens; exposure time 72 h, n = 3; ABCB1-overexpressing MDR line
Source text: as §4, §5

A549 = test: Neutral red uptake antiproliferative assay, A549; details: Homo sapiens, A549, 72 h, read-out: IC50 A549
Source text: as §1, §2, §3

SW620E = test: Neutral red uptake antiproliferative assay, MDR line SW620E; assay type: cell-based, human; details: Homo sapiens; exposure time 72 h, n = 3; ABCC1- and ABCB1-overexpressing MDR line
Source text: as §4, §5

SW620 = test: Neutral red uptake antiproliferative assay, SW620; assay type: cell-based, human; details: Homo sapiens, SW-620; exposure time 72 h, n = 3; 95% CI given
Source text: as §1, §2, §3

SW620 cells = test: Cell cycle distribution by flow cytometry, SW620; assay type: cell-based, human; details: concentration equal to IC75 of (S)-1 / (R)-1, mean ± SEM, n = 3; for Cell cycle fraction G1, 24 h / Cell cycle fraction G2/M, 24 h / Cell cycle fraction S, 24 h: SW620, 24 h; for Cell cycle fraction G1, 48 h / Cell cycle fraction G2/M, 48 h / Cell cycle fraction S, 48 h: SW620, 48 h
Procedure: Ispinesib leads to the formation of monopolar mitotic spindles and a blockade of chromosome segregation in cancer cells. Using flow cytometry, we assessed the cell cycle distribution in the SW620 and SW620E cells exposed to the studied compounds for 24 and 48 h. […] Both complexes, 3c and 3d, decrease the percentage of cells in the G1/G0 phase and increase the percentage in the S and G2/M phases. […] Furthermore, prolonged exposure to the compounds increases the percentage of cells in the G2/M phase, with the most intensive effect observed for 3c and 3d.
SW620 and SW620E cells lines (vulnerable and resistant variants, respectively) were seeded in 6-well plates at a density of 10^5 cells per well. […] After 24 h, the cells were trypsinized and fixed with ice-cold 70% v/v ethanol. The cells were stained with 75 μM propidium iodide with 50 Kunitz units of RNase A in PBS for 30 min at 37 °C. All samples were analyzed using a LSRII flow cytometer (Becton Dickinson) at a PE channel ([…]). Cell cycle phase distribution was determined using a built-in cell cycle module (Watson pragmatic algorithm) by FlowJo 7.6.1 software.

SW620V = test: Neutral red uptake antiproliferative assay, MDR line SW620V; assay type: cell-based, human; details: Homo sapiens; exposure time 72 h, n = 3; ABCB1-overexpressing MDR line
Source text: as §4, §5

SW620M = test: Neutral red uptake antiproliferative assay, MDR line SW620M; assay type: cell-based, human; details: Homo sapiens; exposure time 72 h, n = 3; ABCC1-overexpressing MDR line
Source text: as §4, §5

SW620C = test: Neutral red uptake antiproliferative assay, MDR line SW620C; assay type: cell-based, human; details: Homo sapiens; exposure time 72 h, n = 3; ABCG2-overexpressing MDR line
Source text: as §4, §5

KSP = biological target: T1, KSP (Homo sapiens, UniProt P52732); test: Kinesin ATPase inhibition (ATP hydrolysis) end-point assay; assay type: biochemical; details: 100 nM stated for ispinesib and (R)-1; concentration not restated for the complexes
T1 construct: purchased Cytoskeleton, Inc
T1 sequence (P52732 1-368 limits assumed): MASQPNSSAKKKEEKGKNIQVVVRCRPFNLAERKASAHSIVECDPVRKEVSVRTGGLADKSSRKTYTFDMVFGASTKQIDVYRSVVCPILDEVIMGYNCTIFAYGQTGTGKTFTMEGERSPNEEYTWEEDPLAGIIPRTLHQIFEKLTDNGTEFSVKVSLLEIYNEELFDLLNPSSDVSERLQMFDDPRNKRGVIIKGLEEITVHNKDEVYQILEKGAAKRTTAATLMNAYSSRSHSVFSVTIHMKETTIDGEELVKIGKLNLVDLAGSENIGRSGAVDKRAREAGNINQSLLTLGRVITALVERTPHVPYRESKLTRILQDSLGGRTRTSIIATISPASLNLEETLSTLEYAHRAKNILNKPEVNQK
Procedure: The mechanism of the anticancer activity of ispinesib is related to the inhibition of the activity of the KSP. Thus, we studied the synthesized compounds’ ability to inhibit KSP activity using the adenosine 5′-triphosphate (ATP) hydrolysis assay.
The potential kinesin modulatory activity of tested compounds was performed using a Kinesin ATPase end-point biochem kit (Cytoskeleton, Inc.). […] The experiment was performed according to the manufacturer’s instructions. One μg of tested kinesin (KSP) was used per reaction. Phosphate release was measured at the absorbance 650 nm using an EnVision multilabel plate reader (PerkinElmer).

SMILES	IC50 (Colo205)	IC50 (HepG2)	IC50 (MCF7)	IC50 (SW620Mito)	IC50 (HCT116)	IC50 (SW620D)	IC50 (A549)	IC50 (SW620E)	IC50 (SW620)	Cell cycle fraction G1, 24 h (SW620 cells)	Cell cycle fraction G2/M, 24 h (SW620 cells)	Cell cycle fraction S, 24 h (SW620 cells)	Cell cycle fraction G1, 48 h (SW620 cells)	Cell cycle fraction G2/M, 48 h (SW620 cells)	Cell cycle fraction S, 48 h (SW620 cells)	IC50 (SW620V)	IC50 (SW620M)	IC50 (SW620C)	KSP residual activity (KSP)
CC(C)[C@H](N)c1nc2cc(Cl)ccc2c(=O)n1Cc1ccccc1 [(S)-1, reference compound]	6.07 µM	2.4 µM	3.91 µM	3.91 µM	8.06 µM	4.15 µM	7.05 µM	4.05 µM	2.87 µM	41.8 ± 1.2%	37.1 ± 1.2%	19.5 ± 0.3%	35.2 ± 1.1%	42.5 ± 0.6%	19.9 ± 0.4%	3.44 µM	3.46 µM	3.33 µM	
Cc1ccc(C(=O)N(CCCN)[C@@H](c2nc3cc(Cl)ccc3c(=O)n2Cc2ccccc2)C(C)C)cc1 [ispinesib, reference compound]																			2.2%
CC(C)[C@@H](N)c1nc2cc(Cl)ccc2c(=O)n1Cc1ccccc1 [(R)-1, reference compound]	0.107 µM	0.566 µM	0.231 µM	0.261 µM	0.346 µM	1.12 µM	2.21 µM	0.835 µM	0.096 µM	45.4 ± 1.0%	36.6 ± 2.2%	17.2 ± 1.3%	36.2 ± 1.4%	42.1 ± 0.4%	19.0 ± 0.6%	0.206 µM	0.241 µM	0.721 µM	about 35%
